# System: angiogenesis (vascular density) in air pouch granuloma
# Assay: Murine air pouch granuloma model of inflammatory angiogenesis
# Format: in vivo, mice
# Settings: positive control
# From the text: C. Measurement of Angiogenesis in vivo—Murine Air Pouch Granuloma Model
# The murine airpouch granuloma model of chronic inflammation (Kimura et al., 1985, J. Pharmacobio-Dyn., 8:393–400; Colville-Nash et al., 1995, J. Pharm. and Exp. Ther., 274:1463–1472) whose disclosure is incorporated herein by reference in its entirety, is characterized by inflammatory cell influx, fibrous tissue proliferation and intense angiogenesis. […] In addition, angiogenesis can be accurately quantitated by a vascular casting method.
# Day −1, mice are anesthetized using Aerrane (isoflurane) gas (5%) or other approved methods, after which 3 mls of air is injected into the dorsal subcutaneous tissue using a 27 g needle. Mice are allowed to recover. […]
# When the granuloma is removed it is weighed and then dried for 3 days at 45° C. and reweighed. […] The carmine content is then determined against a carmine red standard curve (0.5 to 2 mg/ml) generated in extracted tissue from non carmine treated animals and read at 490 nm. Sample and standard values are determined typically using DeltaSoft Elisa analysis software (Biometallics Inc., Princeton, N.J.). […]
# The effect of compounds on vascular density is typically measured 6 days after induction of the granuloma. This time point has been determined to be at or near the peak of angiogenesis. […] Medroxyprogesterone has no effect on granuloma size as measured by dry weight.
substance,measurement,setting,value
medroxyprogesterone,maximum reduction (vascular density / vascular index),measured 6 days after induction,50%
same,effect on granuloma size as measured by dry weight,,no effect
